Reference: ChEMBL document CHEMBL1140122 (J Med Chem, 2008)

Tests used:
[1] = Cytotoxicity against BALB mouse 3T3 cells after 48 hrs; assay type: cell-based; conditions: BALB 3T3 cells
M14 = experiment: Cytotoxicity against human M14 cells after 48 hrs; assay type: functional; conditions: M14, 48 h
Trypanosoma cruzi = experiment: Antitrypanosomal activity against Trypanosoma cruzi Tulahuen C4 in african green monkey Vero cells after 120 hrs; assay type: functional, organism-based
PC-3 = experiment: Cytotoxicity against human PC3 cells after 48 hrs; assay type: functional; conditions: PC-3, 48 h
DU-145 = experiment: Cytotoxicity against human DU145 cells after 48 hrs; assay type: functional; conditions: DU-145, 48 h
MCF7 = experiment: Cytotoxicity against human MCF7 cells after 48 hrs; assay type: functional; conditions: MCF7, 48 h
NCI-H460 = experiment: Cytotoxicity against human H460 cells after 48 hrs; assay type: functional; conditions: NCI-H460, 48 h
HT-29 = experiment: Cytotoxicity against human HT29 cells after 48 hrs; assay type: functional; conditions: HT-29, 48 h
K562 = experiment: Cytotoxicity against human K562 cells after 48 hrs; assay type: functional; conditions: K562, 48 h
[2] = Selectivity index, IC50 for african green monkey Vero cells to IC50 for Trypanosoma cruzi Tulahuen C4; assay type: functional
Vero = experiment: Cytotoxicity against african green monkey Vero cells by MTT assay; assay type: cell-based; conditions: Chlorocebus sabaeus

SMILES | GI50 at 48 h [1] | GI50 (M14) | IC50 (Trypanosoma cruzi) | GI50 (PC-3) | GI50 (DU-145) | GI50 (MCF7) | GI50 (NCI-H460) | GI50 (HT-29) | GI50 (K562) | Ratio IC50 [2] | IC50 (Vero)
COc1ccc(CCC(=O)c2c(O)cc(O)cc2OC)cc1 | > 206 µM | 109 µM | > 25 µM | 59.9 µM | > 206 µM | 65.5 µM | 128 µM | > 206 µM | 22.8 µM |  | 
COc1cc(O)c(C(=O)/C=C/c2ccc3c(c2)OCO3)c(OC)c1 | 39 µM | > 190 µM | > 25 µM | 118 µM | > 190 µM | 140 µM | > 190 µM | > 190 µM | 18.9 µM |  | 
C=CCOc1cc(OC)c(C(=O)/C=C/c2ccccn2)c(OCC=C)c1 |  |  | 1.9 µM |  |  |  |  |  |  | 1.5 | 2.8 µM
C=CCOc1cc(OC)c(C(=O)/C=C/c2ccc[nH]2)c(OCC=C)c1 |  |  | > 100 µM |  |  |  |  |  |  |  | 
C=CCOc1cc(OC)c(C(=O)/C=C/c2ccco2)c(OCC=C)c1 |  |  | 12.2 µM |  |  |  |  |  |  | 15.6 | 
C=CCOc1cc(OC)c(C(=O)/C=C/c2ccncc2)c(OCC=C)c1 |  |  | 1.5 µM |  |  |  |  |  |  | 1.9 | 2.8 µM
C=CCOc1cc(OC)c(C(=O)/C=C/c2ccc(C(F)(F)F)cc2)c(OCC=C)c1 |  |  | 15.6 µM |  |  |  |  |  |  | 0.5 | 7.2 µM
C=CCOc1cc(OC)c(C(=O)/C=C/c2ccc(F)cc2)c(OCC=C)c1 |  |  | 14.3 µM |  |  |  |  |  |  | 0.9 | 13.6 µM
C=CCOc1cc(OC)c(C(=O)/C=C/c2cc(OC)c(OC)c(OC)c2)c(OCC=C)c1 |  |  | 3.4 µM |  |  |  |  |  |  | 12 | 40.9 µM
C=CCOc1cc(OC)c(C(=O)/C=C/c2ccc(C)cc2)c(OCC=C)c1 |  |  | 17.2 µM |  |  |  |  |  |  | 12.3 | 
C=CCOc1cc(OC)c(C(=O)/C=C/c2cccc(OC)c2)c(OCC=C)c1 |  |  | 14.2 µM |  |  |  |  |  |  | 9.9 | 
C=CCOc1cc(OC)c(C(=O)/C=C/C=C/c2ccccc2)c(OCC=C)c1 |  |  | > 25 µM |  |  |  |  |  |  |  | 
COc1cc(O)c(C(=O)CCc2ccc3c(c2)OCO3)c(OC)c1 | 21.5 µM | 82 µM | > 100 µM | 39.1 µM | 60.2 µM | 42.4 µM | 105 µM | 145 µM | 28.2 µM |  | 
COc1ccc(/C=C/C(=O)c2c(O)cc(O)cc2OC)cc1 | 6.7 µM | 19.6 µM | > 25 µM | 19.3 µM | 9 µM | 17.3 µM | 14 µM | 21.6 µM | 17 µM |  | 
C=CCOc1cc(OC)c(C(=O)/C=C/c2ccc(O)c(OC)c2)c(OCC=C)c1 |  |  | > 25 µM |  |  |  |  |  |  |  | 
C=CCOc1cc(OC)c(C(=O)/C=C/c2ccccc2)c(OCC=C)c1 |  |  | 17.1 µM |  |  |  |  |  |  | 1 | 17.1 µM
C=CCOc1cc(OC)c(C(=O)/C=C/c2ccccc2F)c(OCC=C)c1 |  |  | 6.2 µM |  |  |  |  |  |  | 2.6 | 16.3 µM
C=CCOc1cc(OC)c(C(=O)/C=C/c2ccccc2Br)c(OCC=C)c1 |  |  | 13.9 µM |  |  |  |  |  |  | 1 | 13.9 µM
C=CCOc1cc(OC)c(C(=O)/C=C/c2ccc([N+](=O)[O-])cc2)c(OCC=C)c1 |  |  | 4.1 µM |  |  |  |  |  |  | 3.1 | 12.6 µM
C=CCOc1cc(OC)c(C(=O)/C=C/c2cc(OCC=C)c(Br)c(OCC=C)c2)c(OCC=C)c1 |  |  | 6.9 µM |  |  |  |  |  |  | 13.9 | 96.3 µM
COc1cc(O)cc(O)c1C(=O)/C=C/c1ccc2c(c1)OCO2 | 5.1 µM | 22.6 µM | 9.4 µM | 18.5 µM | 12.4 µM | 20.4 µM | 15.6 µM | 20.7 µM | 16.2 µM | 2.7 | 25.5 µM
C=CCOc1cc(OC)c(C(=O)/C=C/c2ccc(OC)cc2OC)c(OCC=C)c1 |  |  | 13.1 µM |  |  |  |  |  |  | 7.1 | 92.6 µM
C=CCOc1cc(OC)c(C(=O)/C=C/c2ccc(O)cc2)c(OCC=C)c1 |  |  | 20.3 µM |  |  |  |  |  |  | 3.8 | 76.4 µM
C=CCOc1cc(OC)c(C(=O)/C=C/c2ccc(Cl)cc2)c(OCC=C)c1 |  |  | 8.6 µM |  |  |  |  |  |  | 1.2 | 10.4 µM
COc1ccc(CCC(=O)c2c(O)cc(OC)cc2OC)cc1 | > 197 µM | > 197 µM | > 100 µM | > 197 µM | > 197 µM | > 197 µM | > 197 µM | > 197 µM | > 197 µM |  | 
C=CCOc1cc(OC)c(C(=O)/C=C/c2ccc3c(c2)OCO3)c(OCC=C)c1 | 31.7 µM | 17.2 µM | 13.6 µM | 9.6 µM | 17.5 µM | 10.9 µM | 14.5 µM | 24.1 µM | 12.2 µM | 5.4 | 73.5 µM
C=CCOc1cc(OC)c(C(=O)/C=C/c2ccc(OC)cc2)c(OCC=C)c1 | 41 µM | 27.6 µM | 21.4 µM | 18.1 µM | 21 µM | 19.5 µM | 20 µM | 28.4 µM | 16.6 µM | 4.7 | 99.9 µM
COc1ccc(/C=C/C(=O)c2c(O)cc(OC)cc2OC)cc1 [FLAVOKAWAIN A] | 17.2 µM | 22.5 µM | > 25 µM | 15.2 µM | 30.8 µM | 17.5 µM | 24.1 µM | 45.3 µM | 20.5 µM |  | 
O=c1[nH]cc(F)c(=O)[nH]1 [FLUOROURACIL] | < 1.54 µM | 22.4 µM |  | 14.6 µM | 15.4 µM | 6.5 µM | 4.1 µM | 8.9 µM | 16.7 µM |  | 
CC1CS(=O)(=O)CCN1/N=C/c1ccc([N+](=O)[O-])o1 (stereo unspecified) [NIFURTIMOX] |  |  | 0.52 µM |  |  |  |  |  |  | 154 | 80.1 µM
